According to publication PMC11214487, “YZL-51N functions as a selective inhibitor of SIRT7 by NAD^+ competition to impede DNA damage repair” (iScience, 2024):

Legend:
SIRT1 = target: T1, SIRT1 (Homo sapiens, UniProt Q96EB6); experiment: Protein thermal shift assay; format: binding; conditions: 10 μM
T1 construct: GST-SIRT1-193-741; GST; purchased Active Motif 7846-50; host or cells: E. coli
T1 sequence (Q96EB6 193-741): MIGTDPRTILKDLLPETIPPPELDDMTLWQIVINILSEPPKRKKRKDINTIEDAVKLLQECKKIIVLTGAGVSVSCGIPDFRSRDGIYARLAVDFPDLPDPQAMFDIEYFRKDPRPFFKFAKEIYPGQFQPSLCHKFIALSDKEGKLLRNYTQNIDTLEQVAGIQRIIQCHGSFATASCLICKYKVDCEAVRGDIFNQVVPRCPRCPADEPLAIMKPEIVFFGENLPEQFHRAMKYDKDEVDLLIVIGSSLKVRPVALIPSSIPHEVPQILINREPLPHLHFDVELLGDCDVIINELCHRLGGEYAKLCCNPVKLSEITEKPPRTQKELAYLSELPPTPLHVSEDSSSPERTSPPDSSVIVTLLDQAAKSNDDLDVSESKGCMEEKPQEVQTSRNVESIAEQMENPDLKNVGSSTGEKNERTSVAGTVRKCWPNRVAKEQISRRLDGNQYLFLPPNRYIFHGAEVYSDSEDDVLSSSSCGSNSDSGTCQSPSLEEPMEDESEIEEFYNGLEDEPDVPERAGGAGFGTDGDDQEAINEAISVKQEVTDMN
Protocol: (§1) The mixture containing SIRT1, SIRT6 or SIRT7 proteins, SYPRO Orange, compounds and buffer (100 mM Tris-HCl, 40 mM NaCl, 10 mM MgCl2, pH=7.4) were added into 0.2 mL PCR tubes for a total volume of 20 μL and placed in an ABI ViiA 7 Real-time PCR System. The temperature ranging from 35.0 to 75.0°C was increased at a rate of 0.5°C/s and the fluorescence intensity was monitored in the ROX channel.

SIRT7 = target: T2, SIRT7 (Homo sapiens, UniProt Q9NRC8); experiment: Protein thermal shift assay; format: binding; conditions: 10 μM
T2 construct: His-tagged full length SIRT7 protein expression from BL21 bacterial cells; His; made in house; host or cells: E. coli BL21
T2 sequence (Q9NRC8 1-400): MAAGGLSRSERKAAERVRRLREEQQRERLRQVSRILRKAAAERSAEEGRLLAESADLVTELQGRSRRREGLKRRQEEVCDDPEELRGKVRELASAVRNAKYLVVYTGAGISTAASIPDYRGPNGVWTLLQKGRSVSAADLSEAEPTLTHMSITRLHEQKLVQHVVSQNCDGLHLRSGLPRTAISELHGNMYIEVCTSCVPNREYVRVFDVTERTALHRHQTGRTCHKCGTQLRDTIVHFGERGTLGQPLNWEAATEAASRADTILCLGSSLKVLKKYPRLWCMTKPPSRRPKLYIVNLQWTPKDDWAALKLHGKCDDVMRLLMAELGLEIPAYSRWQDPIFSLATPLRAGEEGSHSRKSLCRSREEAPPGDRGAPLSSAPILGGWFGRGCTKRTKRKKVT
Protocol: as §1

HCT116 = experiment: CCK-8 cell proliferation assay; format: cell-based; conditions: Homo sapiens, HCT-116; HCT116, 48 h
Protocol: (§2) The plate was added with 10 μL CCK-8 solution to each well and incubated for 2 h at 37°C. The absorbance was measured at 450 nm using a microtiter plate reader (BioTek).

HT29 = experiment: CCK-8 cell proliferation assay; format: cell-based; conditions: Homo sapiens, HT-29; HT29, 48 h
Protocol: as §2

SW620 = experiment: CCK-8 cell proliferation assay; format: cell-based; conditions: Homo sapiens, SW-620; SW620, 48 h
Protocol: as §2

SIRT6 = SIRT6 (Homo sapiens, UniProt Q8N6T7); experiment: Cellular thermal shift assay in HCT116 cell lysates; format: binding; set-up: endogenous in cells; host or cells: HCT116; conditions: 20 μM
Chain of SIRT6 (Q8N6T7 whole entry): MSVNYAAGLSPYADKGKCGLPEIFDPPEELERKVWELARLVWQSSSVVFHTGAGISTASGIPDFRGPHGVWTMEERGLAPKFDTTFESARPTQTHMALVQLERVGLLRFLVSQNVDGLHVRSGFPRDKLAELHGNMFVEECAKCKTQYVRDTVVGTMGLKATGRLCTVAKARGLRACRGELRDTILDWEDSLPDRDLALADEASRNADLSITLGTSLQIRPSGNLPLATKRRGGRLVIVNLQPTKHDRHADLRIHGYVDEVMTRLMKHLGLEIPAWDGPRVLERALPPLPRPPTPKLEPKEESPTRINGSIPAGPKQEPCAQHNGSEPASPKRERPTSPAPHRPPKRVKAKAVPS
Protocol: Cellular thermal shift assays were performed according to previously reported methods with some modifications.[66] Briefly, HCT116 cells were lysed with RIPA buffer and incubated with 20 μM YZL-51N or DMSO for 1 h on ice. Subsequently, cell lysates were divided into 70 μL aliquots and heated individually at different temperatures for 4 min following by cooling on ice. The heated lysates were centrifuged, and 50 μL supernatants were taken for SDS-PAGE and immunoblotting analysis with the indicated antibodies.

COC(=O)/C(=C\C(=O)c1ccc(O)c(O)c1)c1ccc(O)c(O)c1 [YZL-51N]
Shift in the melting curve (SIRT1): 0.45 °C
Shift in the melting curve (SIRT7): 2.86 °C
IC50 (HCT116): 37.5 µM
IC50 (HT29): 47.5 µM
IC50 (SW620): 28.6 µM
Effect on the melting curve (SIRT6): no obvious effect
